Source: PubChem BioAssay (NCI)
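Compound exposure: 48 hours, 5 concentrations, 96-well plates. At the GI50, growth is halved. TGI is the concentration that stops growth completely.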

Experiments:
Experiment in all cases: NCI anticancer screen, dose series, 48 h
COLO 205 colon = tested on: COLO 205 colon
MDA-MB-435 = tested on: MDA-MB-435
MOLT-4 leukemia = tested on: MOLT-4 leukemia
NCI/ADR-RES ovarian = tested on: NCI/ADR-RES ovarian
OVCAR-3 ovarian = tested on: OVCAR-3 ovarian
PC-3 prostate = tested on: PC-3 prostate
RPMI-8226 leukemia = tested on: RPMI-8226 leukemia
RXF 393 renal = tested on: RXF 393 renal
SF-539 CNS = tested on: SF-539 CNS
SK-MEL-28 melanoma = tested on: SK-MEL-28 melanoma

Row | SMILES | GI50 (COLO 205 colon) | TGI (COLO 205 colon) | GI50 (MDA-MB-435) | TGI (MDA-MB-435) | GI50 (MOLT-4 leukemia) | TGI (MOLT-4 leukemia) | GI50 (NCI/ADR-RES ovarian) | TGI (NCI/ADR-RES ovarian) | GI50 (OVCAR-3 ovarian) | TGI (OVCAR-3 ovarian) | GI50 (PC-3 prostate) | TGI (PC-3 prostate) | GI50 (RPMI-8226 leukemia) | TGI (RPMI-8226 leukemia) | GI50 (RXF 393 renal) | TGI (RXF 393 renal) | GI50 (SF-539 CNS) | TGI (SF-539 CNS) | GI50 (SK-MEL-28 melanoma) | TGI (SK-MEL-28 melanoma)
1 | CC1(C)NCCC[C@]2(C)[C@H]3CC[C@@H]4[C@H]5[C@H](C(=O)/C=C/c6ccccn6)CC[C@]5(CO)CC[C@@]4(C)[C@]3(C)CC[C@@H]12 | 2.07 µM | 4.28 µM | 2.11 µM | 4.9 µM | 2.35 µM | 7.18 µM | 3.43 µM | 13.9 µM | 2.14 µM | 4.89 µM | 2.55 µM | 11.8 µM | 2.16 µM | 5.58 µM | 2.51 µM | 8.08 µM | 1.78 µM | 3.6 µM | 3.75 µM | 15.7 µM
2 | CN(Cc1cc(Br)cc(Br)c1O)Cc1c(O)ccc2ccccc12 |  | 36.7 µM |  | 40.3 µM |  | 30 µM |  | > 100 µM |  | 31.8 µM |  | 33.5 µM |  | > 100 µM |  | 38.8 µM |  | 35.6 µM |  | 44.2 µM
3 | O=C1C2CCN(CC2)C1(CO)CO |  | 43 µM |  | > 100 µM |  | 23.6 µM |  | 60 µM |  | 31 µM |  | > 100 µM |  | 43.4 µM |  | 52 µM |  | > 78.1 µM |  | 44.5 µM
4 | CN1CCN(c2ccc(NC(=O)c3cncnc3Nc3ccc(OCc4ccccn4)c(Cl)c3)cc2)CC1 | 1.41 µM | 6.19 µM | 0.605 µM | 1.14 µM | 1.64 µM | 9.42 µM | 6.28 µM | 17.1 µM | 5.23 µM | 13 µM | 3.8 µM | 12 µM | 1.33 µM | 6.7 µM | 1.93 µM | 6.71 µM | 1.09 µM | 3.64 µM | 0.749 µM | 1.64 µM
5 | C=C1C(=O)O[C@H]2[C@H]1CC/C(COC(=O)C(C)c1ccc(CC(C)C)cc1)=C\CC[C@@]1(C)O[C@@H]21 (stereo not given in full) | 1.91 µM | 4.1 µM | 1.49 µM | 2.92 µM | 0.42 µM | 2.02 µM | 1.85 µM | 5.54 µM | 1.5 µM | 2.87 µM | 0.891 µM | 2.17 µM | 0.278 µM | 1.19 µM | 1.38 µM | 2.75 µM | 1.6 µM | 2.97 µM | 1.63 µM | 3 µM
6 | CCn1c(-c2nonc2N)nc2c(C#CC(C)(C)O)ncc(OC[C@H]3CCCNC3)c21 | 9.75 µM | 26.3 µM | 13.7 µM | 30.3 µM | 0.23 µM | 31.5 µM | > 100 µM | > 100 µM | 6.92 µM | 25.9 µM | 10.4 µM | 70.8 µM | 17.4 µM | 50.5 µM | 0.228 µM | 11.6 µM | 0.313 µM | 16.9 µM | 11.7 µM | 27.1 µM
7 | CC(=O)O[C@H]1[C@@H]2OC(=O)C(CSc3ccccc3)[C@@H]2C[C@H]2O[C@]2(C)CC/C=C(\C)CCC[C@@H]1C (stereo not given in full) | 1.75 µM | 3.9 µM | 2.12 µM | 5.9 µM | 2.52 µM | > 23.8 µM | 2.99 µM | 32 µM | 1.87 µM | 4.11 µM | 2.53 µM | 11.1 µM | 0.192 µM | 10.4 µM | 1.88 µM | 3.79 µM | 9.4 µM | 23.3 µM | 1.91 µM | 3.93 µM
